Counter-ions that a name gives are not always drawn.

One data set deals with T1, human OCT1 (Homo sapiens, UniProt O15245).
T1 construct: host or cells: HEK293, baculovirus transduction (CMV promoter), transient
T1 sequence (O15245 1-554): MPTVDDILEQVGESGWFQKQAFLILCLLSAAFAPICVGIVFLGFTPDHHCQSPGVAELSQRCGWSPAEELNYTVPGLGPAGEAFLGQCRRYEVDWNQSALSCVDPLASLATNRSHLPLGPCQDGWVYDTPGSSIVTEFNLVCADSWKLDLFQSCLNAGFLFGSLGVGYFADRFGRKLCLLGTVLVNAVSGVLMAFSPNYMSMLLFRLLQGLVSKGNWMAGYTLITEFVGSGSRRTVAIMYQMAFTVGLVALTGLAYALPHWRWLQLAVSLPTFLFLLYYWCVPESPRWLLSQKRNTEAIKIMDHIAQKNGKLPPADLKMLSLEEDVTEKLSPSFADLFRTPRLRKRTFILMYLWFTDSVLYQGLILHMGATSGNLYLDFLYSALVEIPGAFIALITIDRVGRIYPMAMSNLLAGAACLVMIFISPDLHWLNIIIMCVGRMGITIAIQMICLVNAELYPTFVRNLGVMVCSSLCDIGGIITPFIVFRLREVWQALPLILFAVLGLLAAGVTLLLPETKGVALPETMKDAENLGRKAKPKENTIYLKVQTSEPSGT
The data set can be described thus: Inhibition of OCT1-mediated ASP uptake in transduced HEK293 cells. The conditions noted are these: 50 µM anti-malarial, 10 µM ASP, 10 min, 37 °C; relative to solvent control fixed at 100%. Type of data set: cell-based. On the procedure:
(§1) HEK293 cells were modified to transiently express (a combination of) human OCT1, OCT2, MATE1, MATE2-K, or eYFP. Briefly, cDNA of the respective genes was cloned downstream of a CMV promoter into a baculovirus, of which passage three was used to transduce HEK293 cells. These cells were seeded in poly-D-lysine coated 24- or 96-wells plates and grown in a 37 °C incubator at 5% CO2. Growth was initiated at ~ 25% confluency using 375 or 125 μL cell and complete medium (DMEM + GlutaMAX™-I supplemented with 10% fetal bovine serum) suspension per well, respectively. After 24 h, cells were transduced with 30 µL virus (10 µL virus + 20 µL complete medium in case of 96-wells plates) or 2 × 15 µL virus for cells that required simultaneous expression of two transporters. Finally, 195 µL sodium butyrate (45 µL for 96-wells plates) was added to a final concentration of 2 mM to enhance protein expression.
AMO (10 mM), ASP (1 mM), CQ (10 mM), PQ (10 mM) and PG (10 mM) were dissolved in MilliQ water. ART (10 mM), ATO (10 mM), DHA (10 mM), LUM (10 mM), MQ (10 mM), NMQ (20 mM), PYR (10 mM), QN (10 mM) were dissolved in DMSO. All compound stocks were stored at − 20 °C. Inhibition of OCT1- or OCT2-mediated ASP uptake by anti-malarials was performed in poly-D-lysine coated 96-wells plates 2 or 3 days following HEK293 cell transduction. In short, cells were washed with 125 µL 37 °C HBSS containing 10 mM HEPES, pH 7.4. Then, a 50 µL mixture of ASP (10 µM) and anti-malarial compound (25, 50 or 100 µM) in HBSS buffer (pH 7.4) was added to each well and incubated for 10 min at 37 °C. ASP transport was stopped by washing with 125 µL ice-cold HBSS-HEPES buffer supplemented with 0.5% BSA. Following a second wash with 125 µL ice-cold HBSS-HEPES buffer, cells were lysed with 125 µL 1 M NaOH and ASP was excited at a wavelength of 485 nm and fluorescence was detected at an emission wavelength of 535 nm using the Victor X3 multimode plate reader.
For each compound, a range of seven concentrations was used to determine the concentration at which ASP uptake was inhibited half maximally (IC50). At least three independent experiments (4 for QN) were performed for each drug in triplicate as described above. Inhibition curves were plotted by nonlinear regression analyses of the data using GraphPad Prism version 5.03. […] To generate the final dose–response inhibition curve per anti-malarial, percentage of uptake was averaged for each drug concentration per experiment and the resulting mean ± SEM corresponding to three or four independent experiments were plotted.

For data set [1] the following is noted: co-administration of EFV; cited from earlier work.
For another data set, the target named is MATE2-K (Homo sapiens, UniProt Q86VL8). The data set can be described thus: Export assay in HEK293 cells co-transduced with OCT1 and MATE2-K. It is filed as cell-based. Details: host or cells: HEK293, baculovirus transduction (CMV promoter), transient; co-transduced with human OCT1 in the export assay. On the procedure:
as §1
Import and export of PG and cycloguanil (CG) was assessed by single and double transduced HEK293 cells. In short, HEK293 cells seeded in 24-wells plates as described, were transduced separately with eYFP, OCT1, OCT2, MATE1 or MATE2-K, or with combinations of these viruses. Following the same procedure as for the cellular import assay described above, the import of 100 µM PG and CG was measured after 5 min incubation and data was plotted as mean pmol/mg/min ± SEM. For export (following OCT1 uptake) of 1 µM PG after 1 min of transport at pH 7.4, percentage of remaining cellular PG (compared to background) was plotted as mean ± SEM in GraphPad version 5.03. Significant reduction in uptake (i.e. export by MATEs) was determined using ln transformation and a one-way repeated measures ANOVA with Dunnet’s post test.
Anti-malarial concentration in the cell lysates was quantified using an LC–MS/MS system consisting of a UPLC, a binary solvent manager, a vacuum degasser and an autosampler, coupled to a Xevo TQ-S micro triple quadrupole mass spectrometer. Liquid chromatographic separation of the samples (stored at 10 °C; injection volume of 10 µL) was performed at 40 °C using a HSS T3 analytical column (1.8 μm; 100 × 2.1 mm) coupled to a VanGuard HSS T3 pre-column (1.8 µm; 5 × 2.1 mm). […] Positive ion mode was used with selected reaction monitoring (SRM) for the quantitative analysis of AMO, ART, ATO, CQ, CG, DHA, LUM, MQ, PQ, PG, and QN. The peak area of the most abundant product ion was used for quantification.

MATE2-K, sequence (Q86VL8 1-566 isoform Q86VL8-3): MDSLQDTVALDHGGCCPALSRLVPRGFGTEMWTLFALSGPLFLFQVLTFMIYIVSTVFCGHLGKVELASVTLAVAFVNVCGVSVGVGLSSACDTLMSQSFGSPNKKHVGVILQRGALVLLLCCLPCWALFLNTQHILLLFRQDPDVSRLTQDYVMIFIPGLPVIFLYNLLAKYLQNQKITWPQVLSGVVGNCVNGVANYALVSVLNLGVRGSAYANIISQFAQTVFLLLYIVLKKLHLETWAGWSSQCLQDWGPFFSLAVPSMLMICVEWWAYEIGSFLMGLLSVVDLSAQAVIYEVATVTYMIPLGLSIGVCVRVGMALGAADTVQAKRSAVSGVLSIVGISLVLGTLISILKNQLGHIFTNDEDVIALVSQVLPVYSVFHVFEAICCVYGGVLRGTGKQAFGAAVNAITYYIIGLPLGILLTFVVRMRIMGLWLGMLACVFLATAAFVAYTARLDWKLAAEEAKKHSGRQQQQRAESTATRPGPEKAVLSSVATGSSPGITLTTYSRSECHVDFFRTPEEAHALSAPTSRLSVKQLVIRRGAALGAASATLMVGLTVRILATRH

Take `[H]/N=C(\N/C(=N/[H])Nc1ccc(Cl)cc1)NC(C)C` [Proguanil, proguanil hydrochloride]: on human OCT1, the “Relative ASP uptake (OCT1-mediated)” value is 60 ± 7%. Moreover, the “Increase of Cmax of PG by EFV” value in data set [1] is 47%. For the same compound, at MATE2-K (MATE2-K co-transduced with OCT1), the “Intracellular concentration, percentage of its initial value” is given as 56%. Besides, the “Relative decrease in uptake by MATE2-K” value on MATE2-K (OCT1/MATE2-K versus eYFP/OCT1 cells, 1 µM, 1 min) was determined as 44%. Besides, the “Uptake, percentage of eYFP control cells” value on MATE2-K (cells expressing OCT1 and MATE2-K, 1 µM, 1 min, pH 7.4) was 470 ± 80%. Further, the “Fraction exported by MATE2-K” value on MATE2-K (compared to eYFP/OCT1 transduced cells, 1 µM, 1 min) was “approximately 50%”.

Source of the values: publication PMC5654082 (Malaria Journal, 2017).
